Patent US8877748B2, “Heterocyclic fused anthraquinone derivatives, manufacturing method and pharmaceutical composition using thereof” (National Defense Medical Center, priority 2012, dated 2014)

What was measured:
SNB-75 = assay: NCI one-dose screening, CNS cancer SNB-75; format: cell-based, human; conditions: 10 μM
NCI-H522 = assay: NCI one-dose screening, non-small cell lung cancer NCI-H522; format: cell-based, human; conditions: 10 μM
RXF, 393 = assay: NCI one-dose screening, renal cancer RXF, 393; format: cell-based, human; conditions: 10 μM
SF-268 = assay: NCI one-dose screening, CNS cancer SF-268; format: cell-based, human; conditions: 10 μM
MDA-MB-468 = assay: NCI one-dose screening, breast cancer MDA-MB-468; format: cell-based, human; conditions: 10 μM
U251 = assay: NCI one-dose screening, CNS cancer U251; format: cell-based, human; conditions: 10 μM
SF-295 = assay: NCI one-dose screening, CNS cancer SF-295; format: cell-based, human; conditions: 10 μM
SR = assay: NCI one-dose screening, leukemia SR; format: cell-based, human; conditions: 10 μM
HOP-92 = assay: NCI one-dose screening, non-small cell lung cancer HOP-92; format: cell-based, human; conditions: 10 μM
UACC-62 = assay: NCI one-dose screening, melanoma UACC-62; format: cell-based, human; conditions: 10 μM
UACC-257 = assay: NCI one-dose screening, melanoma UACC-257; format: cell-based, human; conditions: 10 μM
OVCAR-8 = assay: NCI one-dose screening, ovarian cancer OVCAR-8; format: cell-based, human; conditions: 10 μM
OVCAR-5 = assay: NCI one-dose screening, ovarian cancer OVCAR-5; format: cell-based, human; conditions: 10 μM
NCI-H226 = assay: NCI one-dose screening, non-small cell lung cancer NCI-H226; format: cell-based, human; conditions: 10 μM
UO-31 = assay: NCI one-dose screening, renal cancer UO-31; format: cell-based, human; conditions: 10 μM
TK-10 = assay: NCI one-dose screening, renal cancer TK-10; format: cell-based, human; conditions: 10 μM
human tumor cell lines = assay: NCI one-dose screening, Mean / Delta / Range of growth percent over all tested cell lines; format: cell-based; conditions: 10 μM
SK-MEL-2 = assay: NCI one-dose screening, melanoma SK-MEL-2; format: cell-based, human; conditions: 10 μM
MALME-3M = assay: NCI one-dose screening, melanoma MALME-3M; format: cell-based, human; conditions: 10 μM
A549/ATCC = assay: NCI one-dose screening, non-small cell lung cancer A549/ATCC; format: cell-based, human; conditions: 10 μM
SN12C = assay: NCI one-dose screening, renal cancer SN12C; format: cell-based, human; conditions: 10 μM
[1] = NCI one-dose screening, renal cancer A489; format: cell-based, human; conditions: 10 μM
786-O = assay: NCI one-dose screening, renal cancer 786-O; format: cell-based, human; conditions: 10 μM
HCT-116 = assay: NCI one-dose screening, colon cancer HCT-116; format: cell-based, human; conditions: 10 μM
IGROV1 = assay: NCI one-dose screening, ovarian cancer IGROV1; format: cell-based, human; conditions: 10 μM
SK-OV-3 = assay: NCI one-dose screening, ovarian cancer SK-OV-3; format: cell-based, human; conditions: 10 μM
OVCAR-3 = assay: NCI one-dose screening, ovarian cancer OVCAR-3; format: cell-based, human; conditions: 10 μM
SNB-19 = assay: NCI one-dose screening, CNS cancer SNB-19; format: cell-based, human; conditions: 10 μM
K562cell line = assay: NCI one-dose screening, leukemia K562; format: cell-based, human; conditions: 10 μM
CAKI-1 = assay: NCI one-dose screening, renal cancer CAKI-1; format: cell-based, human; conditions: 10 μM
[2] = test system: PC-3 prostate cancer cell line; assay: SRB assay cell viability, PC-3 prostate cancer cell line; format: cell-based, human; conditions: Homo sapiens, PC-3 prostate cancer cell line, Table II prints no unit, μM printed, read-out: SRB assay: 50% inhibition of cancer cell proliferation of sample concentration (IC50) of PC-3 prostate cancer cell line
HOP-62 = assay: NCI one-dose screening, non-small cell lung cancer HOP-62; format: cell-based, human; conditions: 10 μM
MDA, -MB-435 = assay: NCI one-dose screening, breast cancer MDA, -MB-435; format: cell-based, human; conditions: 10 μM; listed under Melanoma
MCF7 = assay: NCI one-dose screening, breast cancer MCF7; format: cell-based, human; conditions: 10 μM
HL-60, TB = assay: NCI one-dose screening, leukemia HL-60, TB; format: cell-based, human; conditions: 10 μM
KM12 = assay: NCI one-dose screening, colon cancer KM12; format: cell-based, human; conditions: 10 μM
SF-539 = assay: NCI one-dose screening, CNS cancer SF-539; format: cell-based, human; conditions: 10 μM
LOX IMVI = assay: NCI one-dose screening, melanoma LOX IMVI; format: cell-based, human; conditions: 10 μM
M14 = assay: NCI one-dose screening, melanoma M14; format: cell-based, human; conditions: 10 μM
MDA-MB-231/ATCC = assay: NCI one-dose screening, breast cancer MDA-MB-231/ATCC; format: cell-based, human; conditions: 10 μM
NCI-H460 = assay: NCI one-dose screening, non-small cell lung cancer NCI-H460; format: cell-based, human; conditions: 10 μM
DU145 = assay: NCI one-dose screening, prostate cancer DU145; format: cell-based, human; conditions: 10 μM
BT-549 = assay: NCI one-dose screening, breast cancer BT-549; format: cell-based, human; conditions: 10 μM
HCC-2998 = assay: NCI one-dose screening, colon cancer HCC-2998; format: cell-based, human; conditions: 10 μM
T-47D = assay: NCI one-dose screening, breast cancer T-47D; format: cell-based, human; conditions: 10 μM
HCT-15 = assay: NCI one-dose screening, colon cancer HCT-15; format: cell-based, human; conditions: 10 μM
PRMI-8226 cell line = assay: NCI one-dose screening, leukemia PRMI-8226; format: cell-based, human; conditions: 10 μM
HS 578-T = assay: NCI one-dose screening, breast cancer HS 578-T; format: cell-based, human; conditions: 10 μM; Breast cancer
EKVX = assay: NCI one-dose screening, non-small cell lung cancer EKVX; format: cell-based, human; conditions: 10 μM
HT29 = assay: NCI one-dose screening, colon cancer HT29; format: cell-based, human; conditions: 10 μM
PC-3 = assay: NCI one-dose screening, prostate cancer PC-3; format: cell-based, human; conditions: 10 μM
SK-MEL-5 = assay: NCI one-dose screening, melanoma SK-MEL-5; format: cell-based, human; conditions: 10 μM
MOLT-4 = assay: NCI one-dose screening, leukemia MOLT-4; format: cell-based, human; conditions: 10 μM
SK-MEL-28 = assay: NCI one-dose screening, melanoma SK-MEL-28; format: cell-based, human; conditions: 10 μM
NCl/ADR-RES = assay: NCI one-dose screening, breast cancer NCl/ADR-RES; format: cell-based, human; conditions: 10 μM; listed under Ovarian cancer
NCI-H23 = assay: NCI one-dose screening, non-small cell lung cancer NCI-H23; format: cell-based, human; conditions: 10 μM
ACHN = assay: NCI one-dose screening, renal cancer ACHN; format: cell-based, human; conditions: 10 μM
COLO 205 = assay: NCI one-dose screening, colon cancer COLO 205; format: cell-based, human; conditions: 10 μM

## O=C1c2ccccc2C(=O)c2c1cc(Sc1ccc(F)cc1F)c1nsnc21 [C39, 4-(2,4-difluorophenylthio)anthra[2,1-c] [1,2,5]thiadiazol-6,11-dione]
SNB-75
  Growth Percent SNB-75: 42.86%
NCI-H522
  Growth Percent NCI-H522: 61.06%
RXF, 393
  Growth Percent RXF 393: 36.69%
SF-268
  Growth Percent SF-268: 8.47%
MDA-MB-468
  Growth Percent MDA-MB-468: −86.96%
U251
  Growth Percent U251: 34.47%
SF-295
  Growth Percent SF-295: 68.77%
SR
  Growth Percent SR: 0.20%
HOP-92
  Growth Percent HOP-92: −18.39%
UACC-62
  Growth Percent UACC-62: 53.27%
UACC-257
  Growth Percent UACC-257: 43.93%
OVCAR-8
  Growth Percent OVCAR-8: 0.32%
OVCAR-5
  Growth Percent OVCAR-5: 110.21%
NCI-H226
  Growth Percent NCI-H226: 88.85%
UO-31
  Growth Percent UO-31: 70.30%
TK-10
  Growth Percent TK-10: 111.93%
Human tumor cell lines; delta over all cell lines
  Growth Percent Delta: 119.50%
Human tumor cell lines; mean over all cell lines
  Growth Percent Mean: 32.54%
Human tumor cell lines; range over all cell lines
  Growth Percent Range: 198.89%
SK-MEL-2
  Growth Percent SK-MEL-2: 51.79%
MALME-3M
  Growth Percent MALME-3M: 39.46%
A549/ATCC
  Growth Percent A549/ATCC: 111.54%
SN12C
  Growth Percent SN12C: 9.12%
[1]
  Growth Percent A498: 50.80%
786-O
  Growth Percent 786-0: 3.74%
HCT-116
  Growth Percent HCT-116: −63.06%
IGROV1
  Growth Percent IGROV1: 975%
SK-OV-3
  Growth Percent SK-OV-3: 92.58%
OVCAR-3
  Growth Percent OVCAR-3: −52.32%
SNB-19
  Growth Percent SNB-19: 87.35%
K562cell line
  Growth Percent K562: −21.06%
CAKI-1
  Growth Percent CAKI-1: 24.02%
[2]
  IC50: 14.8 µM
HOP-62
  Growth Percent HOP-62: 58.46%
MDA, -MB-435
  Growth Percent MDA-MB-435: −85.27%
MCF7
  Growth Percent MCF7: 6.58%
HL-60, TB
  Growth Percent HL-60(TB): −37.71%
KM12
  Growth Percent KM12: 51.79%
SF-539
  Growth Percent SF-539: 58.79%
LOX IMVI
  Growth Percent LOX IMVI: −42.03%
M14
  Growth Percent M14: 53.77%
MDA-MB-231/ATCC
  Growth Percent MDA-MB-231/ATCC: −9.73%
NCI-H460
  Growth Percent NCI-H460: 83.60%
DU145
  Growth Percent DU145: 41.32%
BT-549
  Growth Percent BT-549: 66.40- Percent
HCC-2998
  Growth Percent HCC-2998: 107.02%
T-47D
  Growth Percent T-47D: −28.61%
HCT-15
  Growth Percent HCT-15: 45.84%
PRMI-8226 cell line
  Growth Percent RPMI-8226: 6.29%
HS 578-T
  Growth Percent HS 578T: 50.08%
EKVX
  Growth Percent EKVX: 98.12%
HT29
  Growth Percent HT29: 102.45%
PC-3
  Growth Percent PC-3: −9.72%
SK-MEL-5
  Growth Percent SK-MEL-5: 48.53%
MOLT-4
  Growth Percent MOLT-4: −41.57%
SK-MEL-28
  Growth Percent SK-MEL-28: 79.45%
NCl/ADR-RES
  Growth Percent NCI/ADR-RES: −26.24%
NCI-H23
  Growth Percent NCI-H23: 9.53%
ACHN
  Growth Percent ACHN: 34.93%
COLO 205
  Growth Percent COLO 205: 104.04%
